Results filed as inconclusive are left out. Activity calls are given as the source filed them.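 Rule for the calls: active = fitted curve crosses a set inhibition level at a dose up to twice the top tested dose; inconclusive = flat curve with moderate inhibition, or an unreliable curve fit; inactive = the rest, including signal rising instead of falling.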
tested on: not listed separately; experiment: inhibitors of TNFa-stimulated NF-kB luciferase reporter, dose response, selectivity assay for EBV LMP1 NF-kB inhibitor project, HEK293 LMP1 reporter cells, dry powder, set 2 (AID 624369); settings: HEK293 LMP1 TES2 NF-kB luciferase reporter, 16 h; at 35 µM (top of the series)

Row | Structure (SMILES) | activity change, negative = inhibition
1 | CO[C@H](CN(C)S(=O)(=O)c1cccc(Cl)c1)[C@@H](C)CN([C@H](C)CO)S(=O)(=O)c1ccc(Cl)cc1 | -1.32% (inactive)
2 | COc1cccc(S(=O)(=O)N(C)C[C@@H]2Oc3cc(C4=CCCCC4)ccc3S(=O)(=O)N([C@@H](C)CO)C[C@H]2C)c1 | -6.23% (inactive)
3 | C[C@H](NC(=O)C[C@H]1C=C[C@@H](NC(=O)Cc2ccccn2)[C@@H](CO)O1)c1ccccc1 | -2.31% (inactive)
4 | C[C@@H](NC(=O)C[C@H]1C=C[C@@H](NC(=O)Cc2ccccn2)[C@@H](CO)O1)c1ccccc1 | -2.43% (inactive)

tested on: HEK293 LMP1 TES2 NF-kB luciferase reporter, 16 h; experiment: as above; settings: not given

Row | Structure (SMILES) | AC35
5 | O=C(C[C@@H]1C[C@@H]2c3cc(NC(=O)c4ccc5c(c4)OCO5)ccc3O[C@@H]2[C@@H](CO)O1)NCc1ccc(Oc2ccccc2)cc1 | 14.2 µM
6 | N#C[C@H]1[C@H](c2ccc(C#Cc3ccccc3F)cc2)[C@H](CO)N1C(=O)c1cccnc1 | 31.3 µM
7 | CC(C)(C)[S@@](=O)N1Cc2cc(C(=O)NCc3ccccn3)nc(-c3cccc(-c4ccccc4F)c3)c2[C@H]1CCO | 26.1 µM
8 | COc1ccccc1C#Cc1cnc2c(c1)C(=O)N([C@H](C)CO)C[C@H](C)[C@@H](CN(C)C(=O)c1ccc3c(c1)OCO3)O2 | 34.3 µM
9 | N#C[C@H]1[C@H](c2ccc(C#Cc3ccccc3F)cc2)[C@@H](CO)N1C(=O)c1cccnc1 | 20.1 µM
10 | COc1cccc(-c2cccc(-c3nc(C(=O)NCC(F)(F)F)cc4c3[C@H](CCO)N([S@@](=O)C(C)(C)C)C4)c2)c1 | 5.24 µM
11 | COc1ccc(-c2cccc(-c3nc(C(=O)NCC(F)(F)F)cc4c3[C@H](CCO)N([S@@](=O)C(C)(C)C)C4)c2)cc1 | 28 µM
12 | CN1C(=O)c2cc(NC(=O)c3ccc(C(F)(F)F)cc3)ccc2OC[C@@H]2O[C@@H](CC(=O)NC3Cc4ccccc4C3)CC[C@H]21 | 25.7 µM
13 | N#C[C@H]1N[C@H](CO)[C@H]1c1ccc(C#Cc2ccccc2F)cc1 | < 0.26 µM
14 | O=C(C[C@H]1C[C@H]2c3cc(NC(=O)c4ccc5c(c4)OCO5)ccc3O[C@H]2[C@H](CO)O1)NCc1ccc(Oc2ccccc2)cc1 | 30 µM
15 | O=C(C[C@@H]1CC[C@@H]2[C@H](COC[C@@H](O)CN2Cc2ccc(Oc3ccccc3)cc2)O1)N1CCc2ccccc2C1 | 8.89 µM
16 | COc1ccccc1C#Cc1ccc2c(c1)O[C@H](CN(C)Cc1cccnc1)[C@H](C)CN([C@H](C)CO)S2(=O)=O | 20.7 µM
17 | CC(C)NC(=O)N1Cc2cc(C(=O)NC3Cc4ccccc4C3)nc(-c3cccc(-c4cccnc4)c3)c2[C@@H]1CCO | 18.5 µM
18 | O=C(C[C@H]1C[C@@H]2c3cc(NS(=O)(=O)c4ccc(F)cc4)ccc3O[C@@H]2[C@@H](CO)O1)NCc1ccc(Oc2ccccc2)cc1 | 16.7 µM
19 | CC(C)(C)[S@@](=O)N1Cc2cc(C(=O)NCc3ccccc3F)nc(-c3cccc(-c4cccnc4)c3)c2[C@H]1CCO | 12.7 µM
20 | O=C(C[C@H]1C[C@H]2c3cc(NS(=O)(=O)c4ccc(F)cc4)ccc3O[C@H]2[C@H](CO)O1)NCc1ccc(Oc2ccccc2)cc1 | 9.13 µM
21 | CC(=O)N(C)C[C@@H]1Oc2cc(C#Cc3ccc(F)cc3)ccc2S(=O)(=O)N([C@H](C)CO)C[C@H]1C | 34 µM
22 | CC(C)NC(=O)N1Cc2cc(C(=O)NC3Cc4ccccc4C3)nc(-c3cccc(-c4cccnc4)c3)c2[C@H]1CCO | 29.1 µM
23 | Cc1cc(C(=O)Nc2ccc3c(c2)C(=O)N(C)[C@@H]2CC[C@@H](CC(=O)NCc4ccc(-c5ccccc5)cc4)O[C@H]2CO3)no1 | 12.4 µM
24 | O=C(C[C@@H]1C[C@H]2c3cc(NS(=O)(=O)c4ccc(F)cc4)ccc3O[C@H]2[C@@H](CO)O1)NCc1ccc(Oc2ccccc2)cc1 | 19.5 µM
25 | O=C(C[C@@H]1CC[C@@H]2[C@H](COC[C@H](O)CN2Cc2ccc3c(c2)OCO3)O1)Nc1ccc(-c2ccccc2)cc1 | 10.7 µM
26 | COc1ccccc1C#Cc1cnc2c(c1)C(=O)N([C@@H](C)CO)C[C@H](C)[C@@H](CN(C)C(=O)c1ccc3c(c1)OCO3)O2 | 27.9 µM
27 | C[C@@H](NC(=O)C[C@H]1C[C@@H]2c3cc(NC(=O)c4cccnc4)ccc3O[C@@H]2[C@@H](CO)O1)c1ccccc1 | > 35 µM (inactive)

Row | Structure (SMILES) | AC35
28 | Cc1ccc(S(=O)(=O)N(C)C[C@H]2Oc3cc(C#Cc4ccncc4)ccc3S(=O)(=O)N([C@@H](C)CO)C[C@H]2C)cc1 | 16.4 µM
29 | CN(C)c1ccc2c(c1)[C@@H]1C[C@H](CC(=O)NCc3ccc(Oc4ccccc4)cc3)O[C@@H](CO)[C@@H]1O2 | 21.7 µM
30 | CC(C)(C)[S@](=O)N1Cc2cc(C(=O)NCC(F)(F)F)nc(-c3cccc(-c4cccc(F)c4)c3)c2[C@@H]1CCO | 8.65 µM
31 | CN(C)C(=O)c1ccc(-c2cccc(-c3nc(C(=O)NCc4ccccc4)cc4c3[C@@H](CCO)N([S@](=O)C(C)(C)C)C4)c2)cc1 | 10.7 µM
32 | CC(C)(C)[S@@](=O)N1Cc2cc(C(=O)NCCc3ccncc3)nc(-c3cccc(-c4cccnc4)c3)c2[C@H]1CCO | 17.7 µM
33 | COc1ccccc1C#Cc1ccc2c(c1)O[C@H](CN(C)Cc1cccnc1)[C@@H](C)CN([C@@H](C)CO)S2(=O)=O | 26.6 µM
34 | N#C[C@H]1[C@@H](c2ccc(-c3cccnc3)cc2)[C@@H](CO)N1C(=O)Nc1ccc(F)cc1 | 16.9 µM
35 | N#C[C@@H]1[C@H](c2ccc(C#Cc3ccccc3F)cc2)[C@@H](CO)N1C(=O)c1cccnc1 | 2.04 µM
36 | O=C(C[C@H]1C[C@@H]2c3cc(NC(=O)c4ccc5c(c4)OCO5)ccc3O[C@@H]2[C@@H](CO)O1)NCc1ccc(Oc2ccccc2)cc1 | 24.6 µM
37 | CN(C)C(=O)c1cccc(-c2cccc(-c3nc(C(=O)NCc4ccccc4)cc4c3[C@@H](CCO)N([S@](=O)C(C)(C)C)C4)c2)c1 | 10.3 µM
38 | C[C@@H]1CN([C@@H](C)CO)S(=O)(=O)c2ccc(C#Cc3ccncc3)cc2O[C@H]1CN(C)C(=O)Nc1ccc2c(c1)OCO2 | 21.4 µM
39 | COc1ccc(S(=O)(=O)N(C)C[C@H]2Oc3ncc(/C=C/c4ccccc4)cc3C(=O)N([C@H](C)CO)C[C@@H]2C)cc1 | 21.9 µM
40 | COc1ccccc1C#Cc1ccc([C@H]2[C@H](C#N)N(C(=O)C3CC3)[C@H]2CO)cc1 | 27 µM
41 | CN1C(=O)c2cc(NC(=O)Cc3cccs3)ccc2OC[C@@H]2O[C@H](CC(=O)NCc3ccc(-c4ccccc4)cc3)CC[C@H]21 | 33.6 µM
42 | Cc1cc(C(=O)Nc2ccc3c(c2)C(=O)N(C)[C@@H]2CC[C@H](CC(=O)NCc4ccc(-c5ccccc5)cc4)O[C@@H]2CO3)no1 | 6.74 µM
43 | C[C@H]1CN([C@@H](C)CO)S(=O)(=O)c2ccc(C#Cc3ccncc3)cc2O[C@H]1CN(C)C(=O)Nc1ccc2c(c1)OCO2 | 15.3 µM
44 | O=C(C[C@@H]1CC[C@@H]2[C@H](COC[C@@H](O)CN2Cc2ccc3c(c2)OCO3)O1)Nc1ccc(-c2ccccc2)cc1 | 11.2 µM
45 | COc1ccc(CNC(=O)c2cc3c(c(-c4cccc(-c5ccc(C#N)cc5)c4)n2)[C@@H](CCO)N([S@](=O)C(C)(C)C)C3)cc1 | 19.5 µM
46 | CN(C)c1ccc2c(c1)[C@@H]1C[C@@H](CC(=O)NCc3ccc(Oc4ccccc4)cc3)O[C@H](CO)[C@@H]1O2 | 10.3 µM
47 | O=C(C[C@@H]1C[C@@H]2c3cc(NS(=O)(=O)c4ccc(F)cc4)ccc3O[C@@H]2[C@@H](CO)O1)NCc1ccc(Oc2ccccc2)cc1 | 16.7 µM
48 | Cc1cc(C(=O)Nc2ccc3c(c2)C(=O)N(C)[C@H]2CC[C@@H](CC(=O)NCc4ccc(-c5ccccc5)cc4)O[C@H]2CO3)no1 | 13.5 µM
49 | CC(C)(C)[S@@](=O)N1Cc2cc(C(=O)NCc3ccccc3F)nc(-c3cccc(-c4ccncc4)c3)c2[C@H]1CCO | 9.63 µM
50 | Cc1ccc(S(=O)(=O)N(C)C[C@H]2Oc3cc(C#Cc4ccncc4)ccc3S(=O)(=O)N([C@@H](C)CO)C[C@@H]2C)cc1 | 10.2 µM
